Data as given in the supplement of paper PMC10307832.

Key:
Experiment in all cases: relative viability (nuclei count vs DMSO), 5 days (fraction); higher = more cells survive
Pictilisib + OSI-027 = compound: CS(=O)(=O)N1CCN(Cc2cc3nc(-c4cccc5[nH]ncc45)nc(N4CCOCC4)c3s2)CC1 [Pictilisib] + COc1cccc2cc(-c3nc([C@H]4CC[C@H](C(=O)O)CC4)n4ncnc(N)c34)[nH]c12 [OSI-027] (partner 0.5 µM)
How it was run: (§1)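 The day after seeding in 1536-well plates, lung cancer cell lines were treated by pin tool with a single drug, or with a fixed anchor-drug dose together with five library-drug doses (not always all listed) in √10 steps. After 5 days, a combined fix-and-stain solution (final 0.05% Triton X-100, 1% formaldehyde, 1 ug/ml Hoechst) was added. Nuclei counted on 4× images gave relative viability as treated counts over vehicle counts, reported as the median of duplicate plates.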

MK-2206 + Trametinib = compound: NC1(c2ccc(-c3nc4ccn5c(=O)[nH]nc5c4cc3-c3ccccc3)cc2)CCC1 [MK-2206] + CC(=O)Nc1cccc(-n2c(=O)n(C3CC3)c(=O)c3c(Nc4ccc(I)cc4F)n(C)c(=O)c(C)c32)c1 [Trametinib] (partner 0.02 µM)
How it was run: as §1

Pictilisib + Trametinib = compound: CS(=O)(=O)N1CCN(Cc2cc3nc(-c4cccc5[nH]ncc45)nc(N4CCOCC4)c3s2)CC1 [Pictilisib] + CC(=O)Nc1cccc(-n2c(=O)n(C3CC3)c(=O)c3c(Nc4ccc(I)cc4F)n(C)c(=O)c(C)c32)c1 [Trametinib] (partner 0.02 µM)
How it was run: as §1

MK-2206 + Decitabine = compound: NC1(c2ccc(-c3nc4ccn5c(=O)[nH]nc5c4cc3-c3ccccc3)cc2)CCC1 [MK-2206] + Nc1ncn([C@H]2C[C@H](O)[C@@H](CO)O2)c(=O)n1 [Decitabine] (partner 2 µM)
How it was run: as §1

MK-2206 + Bortezomib = compound: NC1(c2ccc(-c3nc4ccn5c(=O)[nH]nc5c4cc3-c3ccccc3)cc2)CCC1 [MK-2206] + CC(C)C[C@H](NC(=O)[C@H](Cc1ccccc1)NC(=O)c1cnccn1)B(O)O [Bortezomib] (partner 0.002 µM)
How it was run: as §1

Row | Cell Line | relative viability (Pictilisib + OSI-027; first compound 0.02 µM) | relative viability (Pictilisib + OSI-027; first compound 0.06325 µM) | relative viability (Pictilisib + OSI-027; first compound 0.6325 µM) | relative viability (Pictilisib + OSI-027; first compound 2 µM) | relative viability (MK-2206 + Trametinib; first compound 0.01 µM) | relative viability (MK-2206 + Trametinib; first compound 0.03162 µM) | relative viability (MK-2206 + Trametinib; first compound 0.3162 µM) | relative viability (MK-2206 + Trametinib; first compound 1 µM) | relative viability (Pictilisib + Trametinib; first compound 0.02 µM) | relative viability (Pictilisib + Trametinib; first compound 0.06325 µM) | relative viability (Pictilisib + Trametinib; first compound 0.6325 µM) | relative viability (Pictilisib + Trametinib; first compound 2 µM) | relative viability (MK-2206 + Decitabine; first compound 0.01 µM) | relative viability (MK-2206 + Decitabine; first compound 0.03162 µM) | relative viability (MK-2206 + Decitabine; first compound 0.3162 µM) | relative viability (MK-2206 + Decitabine; first compound 1 µM) | relative viability (MK-2206 + Bortezomib; first compound 0.01 µM) | relative viability (MK-2206 + Bortezomib; first compound 0.03162 µM) | relative viability (MK-2206 + Bortezomib; first compound 0.3162 µM) | relative viability (MK-2206 + Bortezomib; first compound 1 µM)
1 | A-427 | 0.492 | 0.405 | 0.393 | 0.351 | 0.819 | 0.748 | 0.666 | 0.62 | 0.733 | 0.716 | 0.505 | 0.287 | 0.6 | 0.603 | 0.562 | 0.567 | 0.912 | 1 | 1.02 | 0.931
2 | NCI-H2347 | 0.458 | 0.213 | 0.286 | 0.217 | 0.325 | 0.262 | 0.284 | 0.263 | 0.271 | 0.269 | 0.25 | 0.24 | 0.585 | 0.573 | 0.591 | 0.557 | 0.914 | 1.11 | 1.06 | 0.92
3 | NCI-H1651 | 0.643 | 0.584 | 0.565 | 0.291 | 0.797 | 0.849 | 0.853 | 0.819 | 0.753 | 0.825 | 0.7 | 0.656 | 0.592 | 0.652 | 0.637 | 0.432 | 0.881 | 0.903 | 1.02 | 0.947
4 | HCC-78 | 0.334 | 0.376 | 0.285 | 0.275 | 0.746 | 0.832 | 0.786 | 0.907 | 0.681 | 0.561 | 0.404 | 0.281 | 0.678 | 0.666 | 0.643 | 0.699 | 0.415 | 0.606 | 0.475 | 0.395
5 | NCI-H23 | 0.708 | 0.625 | 0.392 | 0.25 | 0.267 | 0.342 | 0.345 | 0.299 | 0.367 | 0.319 | 0.241 | 0.163 | 0.325 | 0.318 | 0.295 | 0.332 | 0.906 | 1.04 | 0.91 | 0.975
6 | LOU-NH91 | 0.747 | 0.757 | 0.666 | 0.464 | 0.793 | 0.817 | 0.77 | 0.686 | 0.867 | 0.715 | 0.68 | 0.567 | 0.783 | 0.839 | 0.793 | 0.768 | 0.466 | 0.521 | 0.47 | 0.443
7 | LXF-289 | 0.817 | 0.827 | 0.566 | 0.397 | 0.65 | 0.699 | 0.68 | 0.663 | 0.693 | 0.691 | 0.705 | 0.385 | 0.398 | 0.418 | 0.412 | 0.396 | 0.949 | 1.04 | 1.06 | 1.06
8 | NCI-H460 | 0.612 | 0.576 | 0.212 | 0.0454 | 0.154 | 0.193 | 0.0937 | 0.0745 | 0.157 | 0.215 | 0.0736 | 0.0266 | 0.491 | 0.506 | 0.513 | 0.419 | 1.03 | 1.2 | 0.97 | 1.06
9 | NCI-H1792 | 0.752 | 0.617 | 0.335 | 0.173 | 0.363 | 0.395 | 0.365 | 0.296 | 0.505 | 0.346 | 0.305 | 0.102 | 0.6 | 0.577 | 0.581 | 0.458 | 0.985 | 1 | 0.979 | 0.923
10 | EMC-BAC-2 | 0.378 | 0.364 | 0.26 | 0.245 | 0.863 | 0.799 | 0.78 | 0.673 | 0.863 | 0.869 | 0.685 | 0.513 | 0.98 | 0.956 | 0.939 | 0.829 | 1.08 | 1.04 | 1.06 | 0.865
11 | ChaGo-K-1 | 0.586 | 0.626 | 0.411 | 0.314 | 0.894 | 0.867 | 0.881 | 0.904 | 0.813 | 0.873 | 0.79 | 0.631 | 0.533 | 0.511 | 0.514 | 0.526 | 1.09 | 0.993 | 0.924 | 0.763
12 | COR-L 105 | 0.735 | 0.629 | 0.472 | 0.28 | 0.451 | 0.439 | 0.381 | 0.433 | 0.382 | 0.4 | 0.432 | 0.38 | 0.656 | 0.568 | 0.624 | 0.779 | 0.766 | 0.725 | 0.997 | 0.843
13 | NCI-H2009 | 0.656 | 0.583 | 0.319 | 0.188 | 0.252 | 0.299 | 0.248 | 0.254 | 0.36 | 0.277 | 0.167 | 0.116 | 0.379 | 0.376 | 0.432 | 0.365 | 0.969 | 1.03 | 1.12 | 0.94
14 | NCI-H441 | 0.486 | 0.552 | 0.38 | 0.307 | 0.532 | 0.447 | 0.28 | 0.333 | 0.462 | 0.521 | 0.258 | 0.195 | 0.248 | 0.251 | 0.206 | 0.234 | 0.841 | 0.575 | 0.223 | 0.233
15 | NCI-H1437 | 0.855 | 0.685 | 0.619 | 0.289 | 0.577 | 0.51 | 0.44 | 0.403 | 0.472 | 0.418 | 0.289 | 0.194 | 0.603 | 0.559 | 0.562 | 0.521 | 0.521 | 0.531 | 0.444 | 0.529
16 | PC-14 | 1.02 | 1 | 0.557 | 0.266 | 0.557 | 0.876 | 0.516 | 0.704 | 0.749 | 0.761 | 0.537 | 0.196 | 0.22 | 0.248 | 0.215 | 0.253 | 0.732 | 0.858 | 0.811 | 0.851
17 | LCLC-103H | 0.494 | 0.438 | 0.287 | 0.262 | 0.691 | 0.635 | 0.666 | 0.659 | 0.649 | 0.711 | 0.501 | 0.558 | 0.721 | 0.755 | 0.735 | 0.691 | 1.04 | 1.03 | 1.02 | 1.07
18 | COR-L23 | 0.767 | 0.809 | 0.732 | 0.372 | 0.547 | 0.558 | 0.522 | 0.476 | 0.596 | 0.582 | 0.384 | 0.285 | 0.411 | 0.417 | 0.421 | 0.388 | 0.913 | 1 | 1.18 | 0.989
19 | H3255 | 0.58 | 0.578 | 0.389 | 0.309 | 0.523 | 0.618 | 0.493 | 0.502 | 0.611 | 0.556 | 0.394 | 0.243 | 0.611 | 0.628 | 0.51 | 0.502 | 0.718 | 0.977 | 0.718 | 0.564
20 | NCI-H2126 | 0.706 | 0.75 | 0.541 | 0.427 | 0.559 | 0.543 | 0.515 | 0.455 | 0.532 | 0.531 | 0.378 | 0.278 | 0.575 | 0.528 | 0.526 | 0.574 | 1.09 | 1.11 | 1.07 | 1.06
21 | HCC-366 | 0.955 | 0.822 | 0.432 | 0.104 | 0.302 | 0.384 | 0.204 | 0.223 | 0.374 | 0.2 | 0.157 | 0.0661 | 0.358 | 0.334 | 0.339 | 0.32 | 1.01 | 0.982 | 1.04 | 1.02
22 | LU99A | 0.286 | 0.262 | 0.263 | 0.214 | 0.524 | 0.537 | 0.473 | 0.553 | 0.579 | 0.478 | 0.407 | 0.239 | 0.854 | 0.937 | 0.921 | 0.903 | 1.27 | 1.12 | 1.14 | 1.06
23 | HOP-62 | 0.929 | 0.868 | 0.666 | 0.535 | 0.381 | 0.368 | 0.334 | 0.328 | 0.396 | 0.356 | 0.332 | 0.178 | 0.202 | 0.227 | 0.237 | 0.255 | 0.726 | 0.759 | 0.429 | 0.743
24 | HCC-15 | 0.693 | 0.641 | 0.407 | 0.32 | 0.362 | 0.387 | 0.309 | 0.295 | 0.359 | 0.334 | 0.237 | 0.178 | 0.63 | 0.774 | 0.549 | 0.353 | 0.98 | 1.07 | 1 | 0.811
25 | HARA | 0.477 | 0.507 | 0.202 | 0.133 | 0.63 | 0.553 | 0.677 | 0.788 | 0.626 | 0.715 | 0.479 | 0.129 | 0.435 | 0.481 | 0.551 | 0.587 | 1.16 | 1.31 | 1.08 | 0.916
26 | NCI-H1355 | 0.412 | 0.358 | 0.232 | 0.237 | 0.407 | 0.414 | 0.363 | 0.378 | 0.4 | 0.343 | 0.295 | 0.198 | 0.347 | 0.362 | 0.379 | 0.345 | 1.22 | 1.25 | 1.07 | 1.14
